# Columns and labels:
# [1] = molecular target: T1, human recombinant AT2 receptor (Homo sapiens, UniProt P50052); assay: Binding to AT2 receptor, radiometric scintillation assay (Eurofins); settings: ligand 125I CGP 42112A, tested at 1, 10, 100 and 1000 nM
# T1 construct: purchased Eurofins ITEM26
# T1 sequence (P50052 1-363): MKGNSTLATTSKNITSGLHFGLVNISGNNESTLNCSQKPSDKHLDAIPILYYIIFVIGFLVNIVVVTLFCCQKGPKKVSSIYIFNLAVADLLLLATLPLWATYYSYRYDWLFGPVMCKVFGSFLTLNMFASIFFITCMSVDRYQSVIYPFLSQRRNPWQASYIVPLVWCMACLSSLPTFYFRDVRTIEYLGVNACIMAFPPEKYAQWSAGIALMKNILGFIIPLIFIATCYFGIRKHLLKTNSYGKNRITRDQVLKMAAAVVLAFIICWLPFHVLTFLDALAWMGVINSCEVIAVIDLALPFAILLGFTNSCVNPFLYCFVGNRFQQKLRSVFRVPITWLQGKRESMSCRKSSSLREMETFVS
# Description: (§1) Compounds were evaluated for binding to the human recombinant AT2 and AT1 receptor according to Eurofins protocol ITEM26 and ITEM24 using a radiometric scintillation assay.
# [2] = molecular target: T2, human recombinant AT1 receptor (Homo sapiens, UniProt P30556); assay: Binding to AT1 receptor, radiometric scintillation assay (Eurofins); settings: ligand 125I(sar1,Ile8)-AT-II, tested at 1 and 10 μM
# T2 construct: purchased Eurofins ITEM24
# T2 sequence (P30556 1-359): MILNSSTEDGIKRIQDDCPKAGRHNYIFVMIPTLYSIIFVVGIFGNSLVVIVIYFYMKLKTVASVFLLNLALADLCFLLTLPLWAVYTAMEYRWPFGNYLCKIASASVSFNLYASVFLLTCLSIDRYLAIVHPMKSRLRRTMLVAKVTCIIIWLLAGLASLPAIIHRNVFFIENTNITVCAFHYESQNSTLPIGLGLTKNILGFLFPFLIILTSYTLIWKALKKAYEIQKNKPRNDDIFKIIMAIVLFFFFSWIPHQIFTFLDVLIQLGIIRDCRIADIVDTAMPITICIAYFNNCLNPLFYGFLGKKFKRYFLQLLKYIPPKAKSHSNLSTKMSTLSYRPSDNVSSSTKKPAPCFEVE
# Description: as §1
# CYP2B6 = molecular target: T3, CYP2B6 (Homo sapiens, UniProt P20813); assay: CYP inhibition in human liver microsomes, CYP2B6; assay type: in vitro ADME; settings: probe bupropion, substrate bupropion, read-out: CYP2B6 Inh %
# T3 construct: incubated with human liver microsomes; tissue Eurofins ITEMG232; host or cells: human liver microsomes
# T3 sequence (P20813 1-491): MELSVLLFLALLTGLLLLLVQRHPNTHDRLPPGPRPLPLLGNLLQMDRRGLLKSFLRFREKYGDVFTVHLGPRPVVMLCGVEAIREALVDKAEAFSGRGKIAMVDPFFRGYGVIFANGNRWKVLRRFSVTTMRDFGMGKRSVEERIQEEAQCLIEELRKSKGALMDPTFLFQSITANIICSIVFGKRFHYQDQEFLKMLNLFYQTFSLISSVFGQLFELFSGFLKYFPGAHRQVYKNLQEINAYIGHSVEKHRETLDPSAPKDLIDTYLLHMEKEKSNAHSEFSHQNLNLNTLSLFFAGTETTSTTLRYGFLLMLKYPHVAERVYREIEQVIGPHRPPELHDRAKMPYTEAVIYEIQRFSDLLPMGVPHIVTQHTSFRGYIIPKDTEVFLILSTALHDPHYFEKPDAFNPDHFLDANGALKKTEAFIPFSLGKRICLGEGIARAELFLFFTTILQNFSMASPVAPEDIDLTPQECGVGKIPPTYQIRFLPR
# Description: (§2) The following substrates were used: CYP1A phenacetin, CYP2B6 bupropion, CYP2C8 paclitaxel and amodiaquine, CYP2C9 diclofenac, CYP2C19 omeprazole, CYP2D6 dextromethorphan, CYP3A midazolam and testosterone. At the end of the incubation, the formation of metabolite was monitored by HPLC-MS/MS as the peak area response.
# CYP2C19 = molecular target: T4, CYP2C19 (Homo sapiens, UniProt P33261); assay: CYP inhibition in human liver microsomes, CYP2C19; assay type: in vitro ADME; settings: probe omeprazole, substrate omeprazole, read-out: CYP2C19 Inh %
# T4 construct: incubated with human liver microsomes; tissue Eurofins ITEMG232; host or cells: human liver microsomes
# Description: as §2
# CYP2C8 = molecular target: T5, CYP2C8 (Homo sapiens, UniProt P10632); assay: CYP inhibition in human liver microsomes, CYP2C8; assay type: in vitro ADME; settings: probe paclitaxel and amodiaquine, substrate paclitaxel and amodiaquine, read-out: CYP2C8 Inh %
# T5 construct: incubated with human liver microsomes; tissue Eurofins ITEMG232; host or cells: human liver microsomes
# T5 sequence (P10632 1-490): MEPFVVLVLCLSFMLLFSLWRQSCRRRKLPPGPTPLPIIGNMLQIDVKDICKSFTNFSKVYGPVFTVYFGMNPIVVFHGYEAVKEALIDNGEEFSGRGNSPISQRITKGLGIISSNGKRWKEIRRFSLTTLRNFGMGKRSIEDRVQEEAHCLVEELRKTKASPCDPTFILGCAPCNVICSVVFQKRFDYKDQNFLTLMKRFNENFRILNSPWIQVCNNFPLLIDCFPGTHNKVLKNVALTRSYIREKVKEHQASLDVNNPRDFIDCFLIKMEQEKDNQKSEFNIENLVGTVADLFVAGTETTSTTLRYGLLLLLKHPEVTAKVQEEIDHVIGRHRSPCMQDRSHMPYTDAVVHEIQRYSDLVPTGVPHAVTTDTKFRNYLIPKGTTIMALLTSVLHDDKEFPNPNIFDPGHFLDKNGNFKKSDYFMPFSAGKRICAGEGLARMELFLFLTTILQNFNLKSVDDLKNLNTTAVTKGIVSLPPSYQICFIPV
# Procedure, shortened: (§3)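 Metabolite formation, quantified by HPLC-MS/MS peak area at the end of incubation, served as the read-out. Probe substrates in the microsomes were diclofenac (CYP2C9), dextromethorphan (CYP2D6), and paclitaxel or amodiaquine (CYP2C8).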
# CYP2D6 = molecular target: T6, CYP2D6 (Homo sapiens, UniProt P10635); assay: CYP inhibition in human liver microsomes, CYP2D6; assay type: in vitro ADME; settings: probe dextromethorphan, substrate dextromethorphan, read-out: CYP2D6 Inh %
# T6 construct: incubated with human liver microsomes; tissue Eurofins ITEMG232; host or cells: human liver microsomes
# Procedure, shortened: as §3
# CYP3A4&5 = assay: CYP inhibition in human liver microsomes, CYP3A4&5 (testosterone); assay type: in vitro ADME; settings: probe testosterone, substrate testosterone, read-out: CYP3A4&5 testosterone Inh %
# Description: as §2
# CYP2C9 = CYP2C9 (Homo sapiens, UniProt P11712); assay: CYP inhibition in human liver microsomes, CYP2C9; assay type: in vitro ADME; parameters: incubated with human liver microsomes; tissue Eurofins ITEMG232; host or cells: human liver microsomes; settings: probe diclofenac, substrate diclofenac, read-out: CYP2C9 Inh %
# Procedure, shortened: as §3
# CYP3A4 = CYP3A4 (Homo sapiens, UniProt P08684); assay: CYP inhibition in human liver microsomes, CYP3A4 (midazolam); assay type: in vitro ADME; parameters: incubated with human liver microsomes; tissue Eurofins ITEMG232; host or cells: human liver microsomes; settings: probe midazolam, substrate midazolam, read-out: CYP3A4 midazolam Inh %
# Description: as §2
# T4 sequence (P33261 whole entry): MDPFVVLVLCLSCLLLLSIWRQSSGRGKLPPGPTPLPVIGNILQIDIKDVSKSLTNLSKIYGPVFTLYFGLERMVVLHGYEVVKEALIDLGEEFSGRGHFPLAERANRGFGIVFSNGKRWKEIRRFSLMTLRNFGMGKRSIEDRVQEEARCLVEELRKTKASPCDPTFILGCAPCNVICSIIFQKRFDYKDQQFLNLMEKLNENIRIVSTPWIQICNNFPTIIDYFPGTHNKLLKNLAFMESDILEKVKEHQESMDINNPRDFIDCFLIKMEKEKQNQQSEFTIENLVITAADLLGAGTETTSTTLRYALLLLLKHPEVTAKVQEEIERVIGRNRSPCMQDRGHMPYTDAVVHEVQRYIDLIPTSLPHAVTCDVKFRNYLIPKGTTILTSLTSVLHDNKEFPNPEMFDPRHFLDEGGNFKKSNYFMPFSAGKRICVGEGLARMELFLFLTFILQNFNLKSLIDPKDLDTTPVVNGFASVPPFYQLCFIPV
# CYP3A4, sequence (P08684 whole entry): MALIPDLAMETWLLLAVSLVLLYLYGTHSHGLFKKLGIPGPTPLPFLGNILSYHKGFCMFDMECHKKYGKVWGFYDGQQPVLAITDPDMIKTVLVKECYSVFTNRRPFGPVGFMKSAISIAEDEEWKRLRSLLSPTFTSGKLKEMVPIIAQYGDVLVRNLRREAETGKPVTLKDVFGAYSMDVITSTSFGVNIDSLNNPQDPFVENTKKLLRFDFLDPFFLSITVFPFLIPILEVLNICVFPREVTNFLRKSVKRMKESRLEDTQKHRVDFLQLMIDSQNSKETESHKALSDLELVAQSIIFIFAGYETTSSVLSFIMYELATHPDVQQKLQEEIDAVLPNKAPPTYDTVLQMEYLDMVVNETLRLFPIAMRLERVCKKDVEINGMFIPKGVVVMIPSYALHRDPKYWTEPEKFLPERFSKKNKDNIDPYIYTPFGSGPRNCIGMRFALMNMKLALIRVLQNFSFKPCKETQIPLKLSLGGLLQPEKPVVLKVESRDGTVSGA
# CYP2C9, sequence (P11712 whole entry): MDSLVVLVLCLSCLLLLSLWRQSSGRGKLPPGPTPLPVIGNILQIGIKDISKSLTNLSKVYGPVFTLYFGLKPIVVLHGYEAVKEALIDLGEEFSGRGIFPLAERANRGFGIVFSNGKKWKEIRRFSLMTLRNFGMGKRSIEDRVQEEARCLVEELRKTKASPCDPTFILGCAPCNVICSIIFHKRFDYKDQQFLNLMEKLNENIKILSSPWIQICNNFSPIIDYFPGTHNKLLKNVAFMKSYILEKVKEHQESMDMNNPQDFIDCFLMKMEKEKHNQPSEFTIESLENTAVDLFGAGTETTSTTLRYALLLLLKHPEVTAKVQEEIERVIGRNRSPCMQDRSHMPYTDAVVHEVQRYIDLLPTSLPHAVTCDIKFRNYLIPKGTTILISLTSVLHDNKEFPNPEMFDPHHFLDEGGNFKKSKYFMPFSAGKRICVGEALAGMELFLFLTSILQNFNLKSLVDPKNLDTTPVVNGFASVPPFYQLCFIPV
# T6 sequence (P10635 whole entry): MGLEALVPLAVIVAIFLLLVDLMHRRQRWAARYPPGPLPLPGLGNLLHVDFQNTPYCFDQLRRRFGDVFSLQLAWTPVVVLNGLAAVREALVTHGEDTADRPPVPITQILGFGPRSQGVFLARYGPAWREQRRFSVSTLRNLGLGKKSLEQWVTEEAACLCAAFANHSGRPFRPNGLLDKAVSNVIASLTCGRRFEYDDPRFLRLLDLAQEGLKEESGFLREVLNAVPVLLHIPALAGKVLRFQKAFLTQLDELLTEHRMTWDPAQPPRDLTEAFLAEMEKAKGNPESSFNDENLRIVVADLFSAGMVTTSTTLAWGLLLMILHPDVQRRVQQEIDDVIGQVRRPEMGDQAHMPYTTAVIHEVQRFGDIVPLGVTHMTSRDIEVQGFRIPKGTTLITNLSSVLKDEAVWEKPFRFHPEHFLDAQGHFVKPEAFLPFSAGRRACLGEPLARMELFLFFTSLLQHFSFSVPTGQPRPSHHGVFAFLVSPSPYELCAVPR
IC50 [1] [nM],IC50 [2] [nM],inhibition at 10 µM (CYP2B6) [%],inhibition at 10 µM (CYP2C19) [%],inhibition at 10 µM (CYP2C8) [%],inhibition at 10 µM (CYP2D6) [%],inhibition at 10 µM (CYP3A4&5) [%],inhibition at 10 µM (CYP2C9) [%],inhibition at 10 µM (CYP3A4) [%],Compound
16.6,25000,25,58,62,19,13,48,22,"Cc1nccn1Cc1ccc(-c2cc(CC(C)C)sc2S(=O)(=O)NC(=O)NCc2cc(Cl)ccn2)cc1F.O=C(O)C(F)(F)F [Example 38, 1-[(4-chloropyridin-2-yl)methyl]-3-[(3-{3-fluoro-4-[(2-methyl-1H-imidazol-1-yl)methyl]phenyl}-5-(2-methylpropyl)thiophen-2-yl)sulfonyl]urea trifluoroacetic acid]"
3.5,> 1000,18.1,57,76.2,27.3,13.2,51.4,28.5,"CCc1nccn1Cc1ccc(-c2cc(CC(C)C)sc2S(=O)(=O)NC(=O)NCc2ccccc2)cc1 [Example 6, 1-Benzyl-3-(3-{p-[(2-ethyl-1H-imidazol-1-yl)methyl]phenyl}-5-isobutyl-2-thienylsulfonyl)-urea]"
7.7,17000,54,80,64,47,63,70,85,"Cc1nccn1Cc1ccc(-c2cc(CC(C)C)sc2S(=O)(=O)NC(=O)NCC2CCC(F)(F)CC2)cc1F.O=C(O)C(F)(F)F [Example 40, 1-[(4,4-difluorocyclohexyl)methyl]-3-[(3-{3-fluoro-4-[(2-methyl-1H-imidazol-1-yl)methyl]phenyl}-5-(2-methylpropyl)thiophen-2-yl)sulfonyl]urea trifluoroacetic acid]"
4.9,463000,63,73,48,53,12,30,38,"Cc1nccn1Cc1ccc(-c2cc(CC(C)C)sc2S(=O)(=O)NC(=O)NCc2nccn2C)cc1F [Example 15, 1-(3-{3-Fluoro-4-[(2-methyl-1H-imidazol-1-yl)methyl]phenyl}-5-isobutyl-2-thienylsulfonyl)-3-[(1-methyl-1H-imidazol-2-yl)methyl]urea]"
4.9,4000,30,53,76,12,10,58,-5,"CC(C)Cc1cc(-c2ccc(Cn3ccnc3C(C)C)c(F)c2)c(S(=O)(=O)NC(=O)NCCC(F)(F)F)s1.O=C(O)C(F)(F)F [Example 41, 1-{[3-(3-fluoro-4-{[2-(propan-2-yl)-1H-imidazol-1-yl]methyl}phenyl)-5-(2-methylpropyl)thiophen-2-yl]sulfonyl}-3-(3,3,3-trifluoropropyl)urea trifluoroacetic acid]"
8.6,16000,28,56,51,10,27,44,18,"Cc1nccn1Cc1ccc(-c2cc(CC(C)C)sc2S(=O)(=O)NC(=O)NCC(C)C)cc1F.O=C(O)C(F)(F)F [Example 39, 1-[(3-{3-fluoro-4-[(2-methyl-1H-imidazol-1-yl)methyl]phenyl}-5-(2-methylpropyl)thiophen-2-yl)sulfonyl]-3-(2-methylpropyl)urea trifluoroacetic acid]"
1.6,5000,25,67,65,39,10,49,35,"CCc1nccn1Cc1ccc(-c2cc(CC(C)C)sc2S(=O)(=O)NC(=O)NCc2ccc(F)cc2)cc1F.O=C(O)C(F)(F)F [Example 32, 3-[(3-{4-[(2-ethyl-1H-imidazol-1-yl)methyl]-3-fluorophenyl}-5-(2-methylpropyl)thiophen-2-yl)sulfonyl]-1-[(4-fluorophenyl)methyl] urea trifluoroacetic acid]"
5.1,19000,37,26,69,18,11,34,-37,"CCCNC(=O)NS(=O)(=O)c1sc(CC(C)C)cc1-c1ccc(Cn2ccnc2CC)c(F)c1.O=C(O)C(F)(F)F [Example 33, 1-[(3-{4-[(2-ethyl-1H-imidazol-1-yl)methyl]-3-fluorophenyl}-5-(2-methylpropyl)thiophen-2-yl)sulfonyl]-3-propylurea trifluoroacetic acid]"
